Target: T1, RORγ ligand binding domain (LBD) (Homo sapiens, UniProt P51449)
T1 construct: made in house; host or cells: E. coli BL-21 (BL3), vector pDEST15
T1 sequence (P51449 269-508 limits assumed): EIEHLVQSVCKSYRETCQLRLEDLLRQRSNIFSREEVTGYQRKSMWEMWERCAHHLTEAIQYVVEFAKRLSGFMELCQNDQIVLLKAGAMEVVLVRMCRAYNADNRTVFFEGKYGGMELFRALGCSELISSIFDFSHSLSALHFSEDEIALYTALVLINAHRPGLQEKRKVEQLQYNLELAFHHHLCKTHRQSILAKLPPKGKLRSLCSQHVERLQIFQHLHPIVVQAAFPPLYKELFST
Assay: TR-FRET Activity Assay (ligand sensing, RORγ-LBD / coactivator peptide interaction)
Assay type: biochemical
Conditions: not given
Source text: This method measures the ability of putative ligands to modulate the interaction between the purified bacterial expressed RORγ ligand binding domain (LBD) and synthetic N-terminally biotinylated peptides which are derived from nuclear receptor coactivator proteins such as but not limited to SRC1 (NcoA1), SRC2 (NcoA2, TIF2), SRC3 (NcoA3), PGC1α, PGC1β, CBP, GRIP1, TRAP220, RIP140.
The ligand-binding domain (LBD) of RORγ was expressed as fusion protein with GST in […] cells using the vector pDEST15. Cells were lysed by lysozyme-treatment and sonication, and the fusion proteins purified over glutathione sepharose (Pharmacia) according to the manufacturers instructions. For screening of compounds for their influence on the RORγ-peptide interaction, the LANCE technology (Perkin Elmer) was applied. This method relies on the binding dependent energy transfer from a donor to an acceptor fluorophor attached to the binding partner of interest. For ease of handling and reduction of background from compound fluorescence LANCE technology makes use of generic fluorophore labels and time resolved detection assays were done in a final volume of 25 μL in a 384 well plate, in a Tris-based buffer system (20 mM Tris-HCl pH6.8; 60 mM KCl, 1 mM DTT; 5 mM MgCl2; 35 ng/μL BSA), containing 20-60 ng/well recombinantly expressed RORγ-LBD fused to GST, 200-600 nM N-terminally biotinylated peptide, 200 ng/well Streptavidin-xIAPC conjugate (Prozyme) and 6-10 ng/well Eu W1024-antiGST (Perkin Elmer). DMSO content of the samples was kept at 1%.
After generation of the Tris-based buffer system, the potentially RORγ modulating ligands were diluted. […] The LANCE signal was detected by a Perkin Elmer EnVision™ Multilabel Counter. The results were visualized by plotting the ratio between the emitted light at 665 nm and 615 nm. […] Ligands that promote the complex formation induce a concentration-dependent increase in time-resolved fluorescent signal.
The normalised TR-FRET assay values, using the following equation: 1000*665 nm measurement value/615 nm measurement value, were transferred to the program GraphPad Prism to generate graphs and dose response curves using the following equation:
Equation: Sigmoidal Dose-Response (Variable Slope) Y=Bottom+(Top-Bottom)/(1+10^((LogEC50−X)*HillSlope)) X is the logarithm of the concentration. Y is the response. Y starts at Bottom and goes to Top with a sigmoidal shape.
This is identical to the “four parameter logistic equation”. The IC50 values are calculated using this equation.

First: CCNS(=O)(=O)c1cc(-c2cc(C(C)(C)C)cc(C(C)(C)C)c2)n(CC2CCCCC2)c1C [Example 2, 1-(Cyclohexylmethyl)-5-(3,5-di-tert-butylphenyl)-N-ethyl-2-methyl-1H-pyrrole-3-sulfonamide]
Second: Cc1c(S(N)(=O)=O)cc(-c2cc(C(C)(C)C)c(OCCO)c(C(C)(C)C)c2)n1CC1CCCCC1 [16/8]
The IC50 of the first is lower: < 500 nM for the first, 500 to 2000 nM for the second.

`Cc1c(S(N)(=O)=O)cc(-c2cn(S(=O)(=O)NC(C)(C)C)c3ccccc23)n1CC1CCCCC1` [1/32] and `Cc1c(S(N)(=O)=O)cc(-c2cc(C(C)(C)C)c(OCC(=O)O)c(C(C)(C)C)c2)n1CC1CCCCC1` [16/9] cannot be ordered by IC50: > 2000 nM for the first, > 2000 nM for the second.

Same assay, conditions: read-out: RORγ activity in the TR-FRET Activity Assay (IC50 FRET), Group

`CC(C)(C)c1cc(-c2cc(S(N)(=O)=O)c(C#N)n2CC2CCCCC2)cc(C(C)(C)C)c1` [Example 33, 2-Cyano-1-(cyclohexylmethyl)-5-(3,5-di-tert-butylphenyl)-1H-pyrrole-3-sulfonamide] and `CC(C)(C)c1cc(-c2cc(S(N)(=O)=O)c(Cl)n2CC2CCCCC2)cc(C(C)(C)C)c1` [Example 29, 2-Chloro-1-(cyclohexylmethyl)-5-(3,5-di-tert-butylphenyl)-1H-pyrrole-3-sulfonamide] cannot be ordered by IC50: < 500 nM for the first, < 500 nM for the second.

First: COCC(C)(C)NS(=O)(=O)c1ccc(-c2cc(S(N)(=O)=O)c(C)n2CC2CCCCC2)cc1C(F)(F)F [12/32]
Second: CCC(C)(C)NS(=O)(=O)c1ccc(-c2cc(S(N)(=O)=O)c(C)n2CC2CCCCC2)cc1C(F)(F)F [22/6]
The IC50 of the first is higher: 500 to 2000 nM for the first, < 500 nM for the second.

First: Cc1c(S(N)(=O)=O)cc(-c2cc(C(C)(C)C)c(C(=O)O)c(C(C)(C)C)c2)n1CC1CCCCC1 [Example 8, 2,6-Di-tert-butyl-4-(1-(cyclohexylmethyl)-5-methyl-4-sulfamoyl-1H-pyrrol-2-yl)benzoic acid]
Second: Cc1c(S(N)(=O)=O)cc(-c2cc(C(C)(C)C)cc(C(C)(C)C)c2)n1CC1CCCC1 [1/38]
The IC50 of the first is higher: > 2000 nM for the first, 500 to 2000 nM for the second. The second is the more potent here.

`CCC(=O)NCC(C)(C)c1cc(-c2cc(S(N)(=O)=O)c(C)n2CC2CCCCC2)cc(C(C)(C)C)c1` [49/1] and `CC(=O)NCC(C)(C)c1cc(-c2cc(S(N)(=O)=O)c(C)n2CC2CCCCC2)cc(C(C)(C)C)c1` [Example 49, N-(2-(3-(tert-Butyl)-5-(1-(cyclohexylmethyl)-5-methyl-4-sulfamoyl-1H-pyrrol-2-yl)phenyl)-2-methylpropyl)acetamide] cannot be ordered by IC50: > 2000 nM for the first, > 2000 nM for the second.

First: Cc1c(S(N)(=O)=O)cc(-c2cc(C(F)(F)F)c3c(c2)C2(CCO3)CC2)n1CC1CCCCC1 [12/41]
Second: Cc1c(S(N)(=O)=O)cc(-c2cc(C(C)(C)O)c3c(c2)C2(CCO3)CC2)n1CC1CCCCC1 [Example 37, 1-(Cyclohexylmethyl)-5-(8-(2-hydroxypropan-2-yl)spiro[chroman-4,1′-cyclopropan]-6-yl)-2-methyl-1H-pyrrole-3-sulfonamide]
The IC50 of the first is lower: 500 to 2000 nM for the first, > 2000 nM for the second.

`Cc1c(S(N)(=O)=O)cc(-c2cc(C(C)C)c3c(c2)C(C)(C)NS3(=O)=O)n1CC1CCCCC1` [12/17] and `Cc1c(S(N)(=O)=O)cc(-c2cc(O)cc(C(C)(C)C)c2)n1CC1CCCCC1` [Example 14, 5-(3-(tert-Butyl)-5-hydroxyphenyl)-1-(cyclohexylmethyl)-2-methyl-1H-pyrrole-3-sulfonamide] cannot be ordered by IC50: > 2000 nM for the first, > 2000 nM for the second.

First: Cc1c(S(N)(=O)=O)cc(-c2cc(OCC3CC3)cc(C(C)(C)C)c2)n1CC1CCCCC1 [16/3]
Second: COc1cc(-c2cc(S(N)(=O)=O)c(C)n2CC2CCCCC2)cc(C(C)(C)C)c1 [16/1]
The IC50 of the first is lower: 500 to 2000 nM for the first, > 2000 nM for the second. The first is the more potent here.

First: Cc1c(S(N)(=O)=O)cc(-c2ccc(S(=O)(=O)NC(C)(C)C)c(C(C)(C)C)c2)n1CC1CCCCC1 [22/1]
Second: Cc1c(S(N)(=O)=O)cc(-c2ccc(S(=O)(=O)NC(C)(C)C)c(C(F)(F)F)c2)n1CC1CCCCC1 [22/5]
The IC50 of the first is higher: 500 to 2000 nM for the first, < 500 nM for the second. The second is the more potent here.

First: Cc1c(S(N)(=O)=O)cc(-c2cnc(NCC(C)(C)C)c(C(F)(F)F)c2)n1CC1CCCCC1 [34/5]
Second: Cc1c(S(N)(=O)=O)cc(-c2cnc(OCC(C)(C)C)c(C(F)(F)F)c2)n1CC1CCCCC1 [34/4]
The IC50 of the first is lower: 500 to 2000 nM for the first, > 2000 nM for the second.

`Cc1c(S(N)(=O)=O)cc(-c2cc3c(c(C(C)(C)C)c2)OCCC3O)n1CC1CCCCC1` (centres unmarked) [12/45] and `COc1cc(-c2cc(S(N)(=O)=O)c(C)n2CC2CCCCC2)cc(C(C)(C)C)n1` [17/1] cannot be ordered by IC50: > 2000 nM for the first, > 2000 nM for the second.

`Cc1c(S(=O)(=O)NCC(C)(C)C(=O)O)cc(-c2ccc(S(=O)(=O)NC(C)(C)C)c(C(C)(C)C)c2)n1CC1CCCCC1` [Example 11, 3-(5-(3-(tert-Butyl)-4-(N-(tert-butyl)sulfamoyl)phenyl)-1-(cyclohexylmethyl)-2-methyl-1H-pyrrole-3-sulfonamido)-2,2-dimethylpropanoic acid] and `Cc1c(S(N)(=O)=O)cc(-c2cc(C(C)(C)C)cc(S(=O)(=O)NC(C)(C)C)c2)n1CC1CCCCC1` [22/3] cannot be ordered by IC50: > 2000 nM for the first, > 2000 nM for the second.

First: Cc1c(S(N)(=O)=O)cc(-c2cn(S(=O)(=O)c3cccc(Cl)c3)c3ccccc23)n1CC1CCCCC1 [53/1]
Second: Cc1c(S(N)(=O)=O)cc(-c2cn(S(=O)(=O)NC3CCCCC3)c3ccccc23)n1CC1CCCCC1 [1/34]
The IC50 of the first is higher: > 2000 nM for the first, 500 to 2000 nM for the second. The second is the more potent here.

First: Cc1c(S(N)(=O)=O)cc(-c2cc(C(C)(C)C)cc(C(C)(C)C#N)c2)n1CC1CCCCC1 [Example 45, 5-(3-(tert-Butyl)-5-(2-cyanopropan-2-yl)phenyl)-1-(cyclohexylmethyl)-2-methyl-1H-pyrrole-3-sulfonamide]
Second: Cc1c(S(N)(=O)=O)cc(-c2cc(C(C)(C)C)cc(C(C)(F)F)c2)n1CC1CCCCC1 [Example 7, 5-(3-(tert-Butyl)-5-(1,1-difluoroethyl)phenyl)-1-(cyclohexylmethyl)-2-methyl-1H-pyrrole-3-sulfonamide]
The IC50 of the first is higher: 500 to 2000 nM for the first, < 500 nM for the second. The second is the more potent here.

`Cc1c(S(N)(=O)=O)cc(-c2cc(OCC(F)(F)F)nc(C(C)(C)C)c2)n1CC1CCCCC1` [12/12] and `Cc1c(S(N)(=O)=O)cc(-c2cc(OCC(C)C)nc(C(C)(C)C)c2)n1CC1CCCCC1` [Example 17, 5-(2-tert-Butyl-6-isobutoxypyridin-4-yl)-1-(cyclohexylmethyl)-2-methyl-1H-pyrrole-3-sulfonamide] cannot be ordered by IC50: < 500 nM for the first, < 500 nM for the second.

`Cc1c(S(=O)(=O)NCCC(N)=O)cc(-c2cc(C(C)(C)C)cc(C(C)(C)C)c2)n1CC1CCCCC1` [Example 40, 3-(1-(cyclohexylmethyl)-5-(3,5-di-tert-butylphenyl)-2-methyl-1H-pyrrole-3-sulfonamido)propanamide] and `Cc1c(S(=O)(=O)NCCCCCO)cc(-c2cc(C(C)(C)C)cc(C(C)(C)C)c2)n1CC1CCCCC1` [Example 5] cannot be ordered by IC50: < 500 nM for the first, < 500 nM for the second.

First: Cc1c(S(N)(=O)=O)cc(-c2cc(C(C)(C)C)cc(C(C)(C)CNC(=O)C3CC3)c2)n1CC1CCCCC1 [49/2]
Second: Cc1c(S(=O)(=O)NC2CC2)cc(-c2cc(C(C)(C)C)cc(C(C)(C)C)c2)n1CC1CCCCC1 [Example 3, 1-(Cyclohexylmethyl)-N-cyclopropyl-5-(3,5-di-tert-butylphenyl)-2-methyl-1H-pyrrole-3-sulfonamide]
The IC50 of the first is higher: > 2000 nM for the first, < 500 nM for the second.

`Cc1c(S(=O)(=O)N2CCOCC2)cc(-c2cc(C(C)(C)C)cc(C(C)(C)C)c2)n1CC1CCCCC1` [Example 44, 4-((1-(Cyclohexylmethyl)-5-(3,5-di-tert-butylphenyl)-2-methyl-1H-pyrrol-3-yl)sulfonyl)morpholine] and `CC(C)(C)c1cc(-c2cc(S(N)(=O)=O)cn2CC2CCCCC2)cc(C(C)(C)C)c1` [Example 28, 1-(Cyclohexylmethyl)-5-(3,5-di-tert-butylphenyl)-1H-pyrrole-3-sulfonamide] cannot be ordered by IC50: < 500 nM for the first, < 500 nM for the second.

`Cn1c(S(N)(=O)=O)cc(-c2cc(C(C)(C)C)cc(C(C)(C)C)c2)c1CC1CCCCC1` [Example 25, 5-(Cyclohexylmethyl)-4-(3,5-di-tert-butylphenyl)-1-methyl-1H-pyrrole-2-sulfonamide] and `Cc1c(S(N)(=O)=O)cc(-c2cc(OCCCC(=O)O)cc(C(C)(C)C)c2)n1CC1CCCCC1` [Example 16, 4-(3-(tert-Butyl)-5-(1-(cyclohexylmethyl)-5-methyl-4-sulfamoyl-1H-pyrrol-2-yl)phenoxy)butanoic acid] cannot be ordered by IC50: > 2000 nM for the first, > 2000 nM for the second.

With `Cc1c(S(N)(=O)=O)cc(-c2ccc(S(=O)(=O)NC(C)(C)C)c(C(F)F)c2)n1CC1CCCCC1` [12/29] the IC50 was < 500 nM.

— patent US8946446B2, “Pyrrolo sulfonamide compounds for modulation of orphan nuclear receptor RAR-related orphan receptor-γ (ROR-γ, NR1F3) activity and for the treatment of chronic inflammatory and autoimmune diseases” (Phenex Pharmaceuticals AG, priority 2011, dated 2015)
